According to paper PMC9796023, “In vivo and in vitro characterization of GL0034, a novel long‐acting glucagon‐like peptide‐1 receptor agonist” (Diabetes, Obesity & Metabolism, 2022):
Where no end group is shown, it is not given here. [ ]: non-standard residue; d: D form. Aib = CC(C)(N)C(=O)O

Experiments:
[1] = biological target: human serum albumin (human) (UniProt P02768)
[2] = tested on: HFHS diet-fed C57BL6/J mice; test: Study in high-fat, high-sucrose diet-fed mice; assay type: in vivo, mouse; conditions: end of study, n = 3
Method: Male C57BL6/J mice were purchased from Charles River (UK). The mice were housed in a pathogen‐free facility with a 12‐hour light/12‐hour dark cycle. From the age of 8 weeks they were put on a 58 kcal % fat and sucrose diet (D12331; Research Diets Inc., New Brunswick, New Jersey) for 8 weeks to induce obesity and glucose intolerance. […] Body weight was monitored at regular intervals. For glucose tolerance testing, mice were fasted overnight (total 16 hours) and given free access to water. At 9:00 AM, glucose (3 g/kg body weight) was administered via intraperitoneal injection or oral gavage. Blood was sampled from the tail vein at 0, 5, 15, 30, 60 and 90 minutes after glucose administration. Blood glucose was measured with an automatic glucometer (Accuchek; Roche, Burgess Hill, UK). To quantify circulating insulin, 10 μL blood was collected from the tail vein into heparin‐coated tubes (Sarstedt, Beaumont Leys, UK). Plasma was separated by sedimentation at 10 000g for 10 minutes at 4°C. Plasma insulin levels were measured in 5‐μL aliquots by ELISA kits from Crystal Chem (Elk Grove Village, Illinois). At the end of the study, pancreata were isolated and processed for immunohistochemistry.

[3] = biological target: T1, GLP-1R (PathHunter CHO-K1-βarr2-EA-GLP-1R cells) (Homo sapiens, UniProt P43220); test: PathHunter β-arrestin-2 recruitment assay; assay type: cell-based
T1 construct: host or cells: CHO-K1 (PathHunter, co-expressing β-arrestin-2-EA)
Method: PathHunter CHO‐K1‐βarr2‐EA‐GLP‐1R cells were stimulated with agonist for 30 minutes at 37°C in Ham's F12 medium without FBS. At the end of the incubation period, cells were lysed by addition of PathHunter detection reagents and luminescent signal was subsequently recorded from each well.

[4] = biological target: T2, human SNAP-GLP-1R (HEK293-SNAP-GLP-1R cells) (Homo sapiens, UniProt P43220); test: Time-resolved FRET kinetic competition binding vs exendin(9-39)-FITC
T2 construct: expressed in transfected cells
Method: (§1) For in vitro data, the average of within‐assay replicates was counted as one biological replicate. For kinetic binding assays, rate constants for association and dissociation of the unlabelled ligands were calculated using the “kinetics of competition binding” algorithm in PRISM 8 (GraphPad Software), using values for exendin(9‐39)‐FITC determined in the same experiment. Functional concentration response data were fitted using three‐parameter logistic fitting (PRISM 8), with constraints applied where appropriate. Pharmacokinetic analysis was performed using Phoenix® Win‐Nonlin® (Version 8.0). Statistical comparisons were performed using Student's t‐test or one‐way ANOVA, as appropriate. Paired or matched analyses were performed where permitted by the experimental design. Specific post hoc tests are indicated in the legends. Statistical significance was assigned where P < 0.05. Data are represented as mean ± standard error of the mean (SEM) throughout, with individual replicates indicated where possible.

[5] = Plasma pharmacokinetic study in CD-1 mice; assay type: in vivo, mouse; conditions: male CD-1 mice, single s.c. 1 mg/kg, LC-MS/MS, n = 5 per timepoint
Method: A plasma pharmacokinetic study of GL0034 was performed in male CD‐1 Mice (6‐9 weeks of age; 30‐50 g body weight) procured from the Laboratory Animal Resources Department of Sun Pharma Advanced Research Company Ltd (www.sparc.life, a subsidiary of Sun Pharma Industries Ltd.). For full details see Supplementary Methods.
as §1
Animals (n=45) were procured from Laboratory Animal Resources Dept. of Sun Pharma Advanced Research Company Ltd. (www.sparc.life, a subsidiary of Sun Pharma Industries Ltd.). Animals were acclimatized for one day. On day 0, each animal was weighed. Animals were divided into 9 groups, each group containing 5 male animals (one group representing one time-point). All the animals were injected subcutaneously at a dose of 1 mg/kg (dose volume: 10 ml/kg) using 26½ gauge needle attached to an appropriately graduated syringe. At 1, 2, 4, 8, 12, 24, 48, 72 and 96 hours after injection, ~500 µL of blood was collected from mice by retro-orbital plexus puncture using capillary micro-centrifuge tubes containing anticoagulant (15 µL of 10% K2EDTA per tube). Plasma was separated from the collected blood samples by centrifugation at ~3300 rpm (1985 g) for 10 min at 4°C ± 2°C. GL0034 concentrations were estimated using liquid chromatography with tandem mass spectrometry (LCMS-MS). Lower limit of quantitation (LLOQ) for GL0034 was 50 ng/mL.

[6] = biological target: T2, human SNAP-GLP-1R (HEK293-SNAP-GLP-1R cells); test: cAMP assay (HTRF) in HEK293-SNAP-GLP-1R cells; assay type: cell-based
Method: HEK293‐SNAP‐GLP‐1R cells were stimulated with agonist for 30 minutes at 37°C, either in serum‐free media (SFM) or SFM supplemented with 2% human serum albumin (HSA; Sigma Aldrich, Poole, UK). cAMP was determined at the end of the incubation period by homogenous time‐resolved fluorescence (HTRF; cAMP Dynamic 2 kit; Cisbio) using a Spectramax i3x plate reader (Molecular Devices, Wokingham, UK).
For in vitro data, the average of within‐assay replicates was counted as one biological replicate. For kinetic binding assays, rate constants for association and dissociation of the unlabelled ligands were calculated using the “kinetics of competition binding” algorithm in PRISM 8 (GraphPad Software), using values for exendin(9‐39)‐FITC determined in the same experiment. Functional concentration response data were fitted using three‐parameter logistic fitting (PRISM 8), with constraints applied where appropriate. Pharmacokinetic analysis was performed using Phoenix® Win‐Nonlin® (Version 8.0). Statistical comparisons were performed using Student's t‐test or one‐way ANOVA, as appropriate. Paired or matched analyses were performed where permitted by the experimental design. Specific post hoc tests are indicated in the legends. Statistical significance was assigned where P < 0.05. […]

[7] = biological target: human SNAP-GLP-1R (glucagon-like peptide-1 receptor) on HEK293 cells (human, UniProt P43220 24-463, SNAP tag labelled with SNAP-Lumi4-Tb); test: cell-based or functional assay
human SNAP-GLP-1R (glucagon-like peptide-1 receptor) on HEK293 cells, sequence (P43220 24-463): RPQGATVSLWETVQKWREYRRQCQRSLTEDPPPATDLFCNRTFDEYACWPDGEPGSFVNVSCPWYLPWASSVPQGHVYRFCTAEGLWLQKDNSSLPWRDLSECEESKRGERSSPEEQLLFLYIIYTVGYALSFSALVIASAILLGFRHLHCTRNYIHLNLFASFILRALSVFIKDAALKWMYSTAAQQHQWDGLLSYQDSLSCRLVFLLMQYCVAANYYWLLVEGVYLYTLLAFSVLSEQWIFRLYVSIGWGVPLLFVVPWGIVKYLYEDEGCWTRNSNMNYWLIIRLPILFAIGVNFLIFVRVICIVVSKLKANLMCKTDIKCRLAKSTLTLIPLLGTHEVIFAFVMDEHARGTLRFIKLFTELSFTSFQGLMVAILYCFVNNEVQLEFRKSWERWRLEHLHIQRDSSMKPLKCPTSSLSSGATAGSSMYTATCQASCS

T2 sequence (P43220 24-463): as above
T1 sequence (P43220 24-463): as above

Molecule: GL0034 (peptide)
- ∆pEC50 of GLP-1R cAMP signalling potency with and without 2% HSA (HEK293-SNAP-GLP-1R cells) [1]: 2.1

Molecule: CC[C@H](C)[C@H](NC(=O)[C@H](Cc1ccccc1)NC(=O)[C@H](CCC(=O)O)NC(=O)[C@H](CCCCNC(=O)COCCOCCNC(=O)COCCOCCNC(=O)CC[C@H](NC(=O)CCCCCCCCCCCCCCCCC(=O)O)C(=O)O)NC(=O)[C@H](C)NC(=O)[C@H](C)NC(=O)[C@H](CCC(N)=O)NC(=O)CNC(=O)[C@H](CCC(=O)O)NC(=O)[C@H](CC(C)C)NC(=O)[C@H](Cc1ccc(O)cc1)NC(=O)[C@H](CO)NC(=O)[C@H](CO)NC(=O)[C@@H](NC(=O)[C@H](CC(=O)O)NC(=O)[C@H](CO)NC(=O)[C@@H](NC(=O)[C@H](Cc1ccccc1)NC(=O)[C@@H](NC(=O)CNC(=O)[C@H](CCC(=O)O)NC(=O)C(C)(C)NC(=O)[C@@H](N)Cc1cnc[nH]1)[C@@H](C)O)[C@@H](C)O)C(C)C)C(=O)N[C@@H](C)C(=O)N[C@@H](Cc1c[nH]c2ccccc12)C(=O)N[C@@H](CC(C)C)C(=O)N[C@H](C(=O)N[C@@H](CCCNC(=N)N)C(=O)NCC(=O)N[C@@H](CCCNC(=N)N)C(=O)NCC(=O)O)C(C)C [Semaglutide, reference compound]
- Plasma amylase levels [2]: no difference

Molecule: CC[C@H](C)[C@H](NC(=O)[C@H](Cc1ccccc1)NC(=O)[C@H](CCC(=O)O)NC(=O)[C@H](CCCCNC(=O)COCCOCCNC(=O)C(C)(C)NC(=O)CC[C@H](NC(=O)CCCCCCCCCCCCCCCCC(=O)O)C(=O)O)NC(=O)[C@H](C)NC(=O)[C@H](C)NC(=O)[C@H](CCC(N)=O)NC(=O)CNC(=O)[C@H](CCC(=O)O)NC(=O)[C@H](CC(C)C)NC(=O)[C@H](Cc1ccc(O)cc1)NC(=O)[C@H](CO)NC(=O)[C@H](CO)NC(=O)[C@@H](NC(=O)[C@H](CC(=O)O)NC(=O)[C@H](CO)NC(=O)[C@@H](NC(=O)[C@H](Cc1ccccc1)NC(=O)[C@@H](NC(=O)CNC(=O)[C@H](CCC(=O)O)NC(=O)C(C)(C)NC(=O)[C@@H](N)Cc1c[nH]cn1)[C@@H](C)O)[C@@H](C)O)C(C)C)C(=O)N[C@@H](C)C(=O)N[C@@H](Cc1c[nH]c2ccccc12)C(=O)N[C@@H](CC(C)C)C(=O)N[C@H](C(=O)N[C@@H](CCCNC(=N)N)C(=O)NCC(=O)N[C@@H](CCCNC(=N)N)C(=O)NCC(=O)N[C@@H](CC(C)C)C(=O)O)C(C)C [GL0034]
- Plasma amylase levels [2]: no difference
- Emax ([3]; 30 min, 37°C, Ham's F12 without FBS, estimate ± SEM, n = 5): 102 ± 1%
- EC50 ([3]; read-out: βarr2 LogEC50 (converted)): 79.4 nM
- Kd [4]: 25.1 nM
- koff ([4]; HEK293-SNAP-GLP-1R, 37°C, competition with 10 nM exendin(9-39)-FITC, estimate ± SEM, n = 4): 0.00367 s⁻¹
- Kel [5]: 0.0906 h⁻¹
- Cmax ([5]; mouse, sc): 921 nM
- Tmax ([5]; mouse, sc): 4 h
- half-life ([5]; mouse, sc, read-out: t1/2 (plasma half-life) (converted)): 7.65 h
- Emax ([6]; 30 min, 37°C, estimate ± SEM, n = 5): 97 ± 2%
- EC50 ([6]; read-out: cAMP LogEC50 (converted)): 0.631 nM

B1: GL0034 (peptide)
chain: H[Aib]EGTFTSDVSSYLEGQAAKEFIAWLVRGRGL
modifications: not fully specified (residue 20); also: K20 linker includes Aib, structure not given here
- GLP-1R endocytosis (high content imaging), HEK293-SNAP-GLP-1R cells, LogEC50 (M) [7]: -9.2 M (log)
- cAMP production, HEK293-SNAP-GLP-1R cells, 30 minutes, LogEC50 (M) [7]: -9.2 M (log)
